Molecular target: T1, MerTK (Homo sapiens, UniProt Q12866)
T1 construct: endogenous in cells; host or cells: Jurkat cells
T1 sequence (Q12866 21-999): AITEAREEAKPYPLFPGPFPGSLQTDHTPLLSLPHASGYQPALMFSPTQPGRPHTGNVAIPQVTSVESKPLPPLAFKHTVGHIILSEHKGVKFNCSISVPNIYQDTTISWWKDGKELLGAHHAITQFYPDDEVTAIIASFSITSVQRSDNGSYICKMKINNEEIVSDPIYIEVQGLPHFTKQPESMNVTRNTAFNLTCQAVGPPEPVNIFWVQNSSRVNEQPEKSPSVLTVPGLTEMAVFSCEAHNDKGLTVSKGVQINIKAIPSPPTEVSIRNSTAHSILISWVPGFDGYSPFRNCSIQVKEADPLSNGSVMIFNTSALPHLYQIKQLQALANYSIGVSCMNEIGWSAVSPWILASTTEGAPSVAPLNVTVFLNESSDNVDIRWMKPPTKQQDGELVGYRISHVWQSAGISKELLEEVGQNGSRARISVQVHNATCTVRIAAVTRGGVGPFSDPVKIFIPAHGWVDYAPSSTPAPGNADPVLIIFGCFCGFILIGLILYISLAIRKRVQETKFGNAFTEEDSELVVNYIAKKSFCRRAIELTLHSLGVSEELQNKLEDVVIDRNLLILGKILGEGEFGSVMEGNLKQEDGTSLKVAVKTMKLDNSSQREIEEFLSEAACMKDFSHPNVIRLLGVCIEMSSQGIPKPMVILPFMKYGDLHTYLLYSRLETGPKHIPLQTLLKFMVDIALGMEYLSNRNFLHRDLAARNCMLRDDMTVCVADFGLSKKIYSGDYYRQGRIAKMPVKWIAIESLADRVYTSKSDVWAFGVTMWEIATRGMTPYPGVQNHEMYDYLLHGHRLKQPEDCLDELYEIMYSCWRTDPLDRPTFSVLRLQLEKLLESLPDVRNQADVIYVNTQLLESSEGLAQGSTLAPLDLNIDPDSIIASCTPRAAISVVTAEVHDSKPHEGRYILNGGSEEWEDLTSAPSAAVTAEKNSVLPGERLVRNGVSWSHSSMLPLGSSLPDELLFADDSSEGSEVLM
Assay: MerTk degradation in Jurkat cells (Western blot)
Type: cell-based
Settings: Jurkat, 4 h, 0.001-1 μM, 4 hour-incubation at 37° C., read-out: Jurkat Max % MerTK Degradation
Method in brief: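 Jurkat cells treated 4 h at 37 °C with compound at 0.001-1 μM final. RIPA lysates quantified by BCA, then MerTK probed by Western blot against actin loading control with IR-dye secondaries and Odyssey imaging.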

| Dmax [%] | Structure (SMILES) |
| --- | --- |
| > 50 | Cn1c(=O)n([C@H]2CCC(=O)NC2=O)c2ccc(C#CCOCCOCCN3CCN(Cc4ccc(-c5cn([C@H]6CC[C@H](O)CC6)c6nc(NCCC(F)(F)F)ncc56)cc4)CC3)cc21 [I-82, 3-(3-methyl-2-oxo-5-[3-[2-(2-[4-[(4-[7-[trans-4-hydroxycyclohexy1]-2-[(3,3,3-trifluoropropyl)amino]-7H-pyrrolo[2,3-d]pyrimidin-5-yl]phenyl)methyl]piperazin-1-yl]ethoxy)ethoxy]prop-1-yn-1-yl]-2,3-dihydro-1H-1,3-benzodiazol-1-yl)piperidine-2,6-dione] |
| > 50 | Cn1c(=O)n([C@H]2CCC(=O)NC2=O)c2ccc(CCCOCCCN3CCN(Cc4ccc(-c5cn(C6CCCCC6)c6nc(NCCC(F)(F)F)ncc56)cc4)CC3)cc21 [I-83, 3-[5-[3-(3-[4-[(4-[7-cyclohexyl-2-[(3,3,3-trifluoropropyl)amino]-7H-pyrrolo[2,3-d]pyrimidin-5-yl]phenyl)methyl]piperazin-1-yl]propoxy)propyl]-3-methyl-2-oxo-2,3-dihydro-1H-1,3-benzodiazol-1-yl]piperidine-2,6-dione;] |
| > 50 | Cn1c(=O)n(C2CCC(=O)NC2=O)c2ccc(C#CCOCCN3CCC(N4CCN(Cc5ccc(-c6cn([C@H]7CC[C@H](O)CC7)c7nc(NCCC(F)(F)F)ncc67)cc5)CC4)C3)cc21 (stereo partly drawn) [I-85, 3-(3-methyl-2-oxo-5-[3-[2-(3-[4-[(4-[7-[trans-4-hydroxycyclohexyl]-2-[(3,3,3-trifluoropropyl)amino]-7H-pyrrolo[2,3-d]pyrimidin-5-yl]phenyl)methyl]piperazin-1-yl]pyrrolidin-1-yl)ethoxy]prop-1-yn-1-y1]-2,3-dihydro-1H-1,3-benzodiazol-1-y1)piperidine-2,6-dione; di(formic acid)] |
| > 50 | Cn1c(=O)n([C@H]2CCC(=O)NC2=O)c2ccc(C#CCOCCN3CCC(N4CCN(Cc5ccc(-c6cn([C@H]7CC[C@H](O)CC7)c7nc(NCCC(F)(F)F)ncc67)cc5)CC4)CC3)cc21 [I-86, 3-(3-methyl-2-oxo-5-[3-[2-(4-[4-[(4-[7-[trans-4-hydroxycyclohexy1]-2-[(3,3,3-trifluoropropyl)amino]-7H-pyrrolo[2,3-d]pyrimidin-5-yl]phenyl)methyl]piperazin-1-yl]piperidin-1-yl)ethoxy]prop-1-yn-1-yl]-2,3-dihydro-1H-1,3-benzodiazol-1-yl)piperidine-2,6-dione; formic acid] |
| > 50 | Cn1c(=O)n(C2CCC(=O)NC2=O)c2ccc(C#CCOCCN3CCCC(N4CCN(Cc5ccc(-c6cn([C@H]7CC[C@H](O)CC7)c7nc(NCCC(F)(F)F)ncc67)cc5)CC4)C3)cc21 (stereo partly drawn) [I-87, 3-(3-methyl-2-oxo-5-[3-[2-(3-[4-[(4-[7-[trans-4-hydroxycyclohexyl]-2-[(3,3,3-trifluoropropyl)amino]-7H-pyrrolo[2,3-d]pyrimidin-5-yl]phenyl)methyl]piperazin-1-yl]piperidin-1-yl)ethoxy]prop-1-yn-1-y1]-2,3-dihydro-1H-1,3-benzodiazol-1-y1)piperidine-2,6-dione; formic acid] |
| > 50 | Cn1c(=O)n([C@H]2CCC(=O)NC2=O)c2ccc(CCCOCCOCCN3CCN(Cc4ccc(-c5cn([C@H]6CC[C@H](O)CC6)c6nc(NCCCF)ncc56)cc4)CC3)cc21 [I-88, 3-(5-[3-[2-(2-[4-[(4-[2-[(3-fluoropropyl)amino]-7-[trans-4-hydroxycyclohexyl]-7H-pyrrolo[2,3-d]pyrimidin-5yl]phenyl)methyl]piperazin-1-yl]ethoxy)ethoxy]propyl]-3-methyl-2-oxo-2,3-dihydro-1H-1,3-benzodiazol-1-yl)piperidine-2,6-dione; formic acid] |
| > 50 | CCCCNc1ncc2c(n1)n([C@H]1CC[C@H](O)CC1)cc2[C@H]1CC[C@@H](CN2CCN(CCOCCOCCOCCOCCCc3ccc4c(c3)n(C)c(=O)n4[C@H]3CCC(=O)NC3=O)CC2)CC1 [I-89, 3-[3-methyl-2-oxo-5-[1-(4-[[(1s,4s)-4-[2-(butylamino)-7-[trans-4-hydroxycyclohexy1]-7H-pyrrolo[2,3-d]pyrimidin-5-yl]cyclohexyl]methyl]piperazin-1-yl)-3,6,9,12-tetraoxapentadecan-15-yl]-2,3-dihydro-1H-1,3-benzodiazol-1-yl]piperidine-2,6-dione; di(formic acid)] |
| > 50 | CCCCNc1ncc2c(n1)n([C@H]1CC[C@H](O)CC1)cc2[C@H]1CC[C@H](CN2CCN(CCOCCOCCOCCOCCCc3ccc4c(c3)n(C)c(=O)n4[C@H]3CCC(=O)NC3=O)CC2)CC1 [I-90, 3-[3-methyl-2-oxo-5-[1-(4-[[(1r,4r)-4-[2-(butylamino)-7-[trans-4-hydroxycyclohexy1]-7H-pyrrolo[2,3-d]pyrimidin-5-yl]cyclohexyl]methyl]piperazin-1-yl)-3,6,9,12-tetraoxapentadecan-15-y1]-2,3-dihydro-1H-1,3-benzodiazol-1-yl]piperidine-2,6-dione] |
| > 50 | Cn1c(=O)n([C@H]2CCC(=O)NC2=O)c2ccc(CCCOCCN3CC(N4CCN(Cc5ccc(-c6cn([C@H]7CC[C@H](O)CC7)c7nc(NCCC(F)(F)F)ncc67)cc5)CC4)C3)cc21 [I-91, 3-(3-methyl-2-oxo-5-[3-[2-(3-[4-[(4-[7-[trans-4-hydroxycyclohexy1]-2-[(3,3,3-trifluoropropyl)amino]-7H-pyrrolo[2,3-d]pyrimidin-5-y1]phenyl)methyl]piperazin-1-yl]azetidin-1-yl)ethoxy]propyl]-2,3-dihydro-1H-1,3-benzodiazol-1-yl)piperidine-2,6-dione; formic acid] |
| > 50 | Cn1c(=O)n([C@H]2CCC(=O)NC2=O)c2ccc(C#CCOCCN3CC(N4CCN(Cc5ccc(-c6cn([C@H]7CC[C@H](O)CC7)c7nc(NCCC(F)(F)F)ncc67)cc5)CC4)C3)cc21 [I-92, 3-(3-methyl-2-oxo-5-[3-[2-(3-[4-[(4-[7-[trans-4-hydroxycyclohexy1]-2-[(3,3,3-trifluoropropyl)amino]-7H-pyrrolo[2,3-d]pyrimidin-5-yl]phenyl)methyl]piperazin-1-yl]azetidin-1-yl)ethoxy]prop-1-yn-1-y1]-2,3-dihydro-1H-1,3-benzodiazol-1-y1)piperidine-2,6-dione; formic acid] |

| Structure (SMILES) | Dmax [%] |
| --- | --- |
| CC(c1ccc(-c2cn([C@H]3CC[C@H](O)CC3)c3nc(NCCC(F)(F)F)ncc23)cc1)N1CCN(CCCCOCCCc2ccc3c(c2)n(C)c(=O)n3C2CCC(=O)NC2=O)CC1 (stereo partly drawn) [I-81, 3-[3-methyl-2-oxo-5-[3-(4-[4-[1-(4-[7-[trans-4-hydroxycyclohexyl]-2-[(3,3,3-trifluoropropyl)amino]-7H-pyrrolo[2,3-d]pyrimidin-5-yl]phenyl)ethyl]piperazin-1-y1]butoxy)propyl]-2,3-dihydro-1H-1,3-benzodiazol-1-yl]piperidine-2,6-dione] | > 50 |
| Cn1c(=O)n([C@H]2CCC(=O)NC2=O)c2ccc(CCCOCCCCN3CCN(Cc4ccc(-c5cn(C6CCCCC6)c6nc(NCCC(F)(F)F)ncc56)cc4)CC3)cc21 [I-84, 3-[5-[3-(4-[4-[(4-[7-cyclohexy1-2-[(3,3,3-trifluoropropyl)amino]-7H-pyrrolo[2,3-d]pyrimidin-5-y1]phenyl)methyl]piperazin-1-yl]butoxy)propyl]-3-methyl-2-oxo-2,3-dihydro-1H-1,3-benzodiazol-1-yl]piperidine-2,6-dione] | > 50 |

— patent publication US20260042762A1 (Kymera Therapeutics, Inc., priority 2018, published 2026)
